Laboratory results reported in patent US9447020B2, “Polyunsaturated fatty acid monoglycerides, derivatives, and uses thereof” (SCF PHARMA INC., priority 2013, dated 2016).

Assays:
SW620 cells = assay: Effect on growth of SW620 cells (cell counting, trypan blue); type: cell-based, Human; conditions: for IC50: SW620 colorectal carcinoma cells, 48 h treatment, 0.2% FBS, cumulative concentration response curve
Method: Human SW620 colorectal carcinoma cells were obtained from the American Type Culture Collection (ATCC) and maintained in Leitbovitz's L-15 medium containing 10% FBS, 10 mM HEPES, 2.2 g/L Na2C03 and 10 units/ml penicillin, 100 μg/ml streptomycin. Cells were grown in a 5% CO2 incubator at 37° C. A predefined number of SW620 cells were allowed to grow in 24 wells plates (1×10^4 cells/well) for 3 days until cells reached 80% confluence. Then, cells were starved in Leitbovitz's medium without FBS for 8 h. Then, the culture medium was replaced with Leitbovitz+0.2% FBS and different concentrations of MAG-DHA, MAG-EPA or MAG-DPA (0.1, 0.3, 1, 3, 10, 30 and 100 μM) were added to each well. Culture media were changed every 24 h and cells were treated for 48 h. After 48, the medium was removed from the culture plates and 0.05% trypsing EDTA was used to detach the cells from the surface of the culture plates. The harvested cells were counted, both the viable and dead ones, using a Countess Automated Cell Counter (Invitrogen Inc.). Briefly, for each condition an appropriated cell dilution was prepared from the harvested cells and an aliquot was mixed with an equal volume of 0.4% trypan blue, and 10 μl was transferred into each side of a Countess™ chamber slide. All concentrations tested were performed in triplicata and were representative of 5 independent experiment.
FIG. 2 represents an in vitro cumulative concentration response curves (CCRC) of MAG-DHA, MAG-EPA and MAG-DPA ([…]) on SW620 cell growth.

[1] = system: A549 human cancer cell line; assay: In vivo tumor xenograft experiment: tumor tissue fatty acid composition after oral MAG-DHA; conditions: A549 xenografts in female CD-1 nude mice; per os 618 mg/kg daily for 48 days; tumors harvested 24 hours after treatment completion; HPLC-MS
Method: Female CD-1 nude mice were obtained from Charles River Laboratories (Montreal, Qc, Canada). All studies involving mice were approved by the institutional animal care committee (Protocol: #237-10). Human A549 xenografts were established in 4-week-old female CD-1 nude mice. Mice were inoculated with 0.2 ml of a solution of 1×10^6 A549 cells subcutaneously on the right flank. Mice were randomly assigned into 3 groups, control (untreated), corn oil and MAG-DHA (CA2672513, CA2677670) treated (n=6 per group). Corn oil and MAG-DHA were administrated per os (618 mg/kg) daily following cell inoculation. Treatments were continued for 48 days. Mice were sacrificed when tumor volume reached ≈1.5 cm3 in the control group. Tumor tissues were harvested 24 hours after treatment completion. Tumor tissue fatty acids compositions were measured using a high-performance liquid chromatography (HPLC)-MS method [Gagne S and al. J Lipid Res 2007 January; 48(1):252-9] modified to detect complete fatty acid composition. Data were acquired in SIM mode corresponding to the following fatty acids: C20:4 (AA), C20:5 (EPA), C22:5 (DPA), C22:6 (DHA). The linear calibration curves were obtained in the concentration range of 2 to 500 μg/ml
FIG. 1 represents the fatty acids compositions of tumors after MAG-DHA oral supplementation.

| SMILES | times more active than MAG-EPA or MAG-DHA (SW620 cells; SW620 cell growth, comparison of IC50 values) | IC50 (SW620 cells) | fatty acids compositions of tumors (EPA, DHA, DPA) compared to control and corn oil groups [1] | IC50 (SW620 cells; Homo sapiens, SW-620, 48 h) |
| --- | --- | --- | --- | --- |
| CC/C=C\C/C=C\C/C=C\C/C=C\C/C=C\CCCCCC(=O)OCC(O)CO (stereo not drawn) [MAG-DPA, sn1(3)-all-cis-7,10,13,16,19-docosapentaenoylglyceride] | 10 times | 370 nM |  |  |
| CC/C=C\C/C=C\C/C=C\C/C=C\C/C=C\CCCCCC(=O)OCC(O)CO (stereo not drawn) [MAG-DHA, sn1(3)-all-cis-4,7,10,13,16,19-docosahexaenoylglyceride] |  | 2900 nM | significant increase in EPA, DHA and DPA |  |
| CC/C=C\C/C=C\C/C=C\C/C=C\C/C=C\CCCC(=O)OCC(O)CO (stereo not drawn) [MAG-EPA, sn1(3)-all-cis-5,8,11,14,17-eicosapentaenoylglyceride] |  |  |  | 3200 nM |
